Values joined by “and” are separate entries in the source; they are usually repeats but may differ in a detail not shown here. Equal values may be shown once.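 Five compound concentrations were applied to cells in 96-well plates for 48 hours; endpoints were derived by simple linear interpolation of the resulting dose-response curve. GI50 = concentration required for 50% inhibition of growth. TGI marks complete inhibition of growth.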
Columns and labels:
Assay in all cases: NCI anticancer screen, dose series, 48 h
COLO 205 colon = system: COLO 205 colon
SN12C renal = system: SN12C renal
HS 578T breast = system: HS 578T breast
HL-60(TB) leukemia = system: HL-60(TB) leukemia
PC-3 prostate = system: PC-3 prostate
MALME-3M melanoma = system: MALME-3M melanoma
UO-31 renal = system: UO-31 renal
RXF 393 renal = system: RXF 393 renal
SF-268 CNS = system: SF-268 CNS
M14 melanoma = system: M14 melanoma

SMILES | GI50 (COLO 205 colon) | TGI (COLO 205 colon) | GI50 (SN12C renal) | TGI (SN12C renal) | GI50 (HS 578T breast) | TGI (HS 578T breast) | GI50 (HL-60(TB) leukemia) | TGI (HL-60(TB) leukemia) | GI50 (PC-3 prostate) | TGI (PC-3 prostate) | GI50 (MALME-3M melanoma) | TGI (MALME-3M melanoma) | GI50 (UO-31 renal) | TGI (UO-31 renal) | GI50 (RXF 393 renal) | TGI (RXF 393 renal) | GI50 (SF-268 CNS) | TGI (SF-268 CNS) | GI50 (M14 melanoma) | TGI (M14 melanoma)
Nc1nc2c(c3ncccc13)C(c1cccc(Cl)c1)Cc1ncccc1-2 (centres undefined) | 1.53 µM | 3.94 µM | 5.93 µM | 44.5 µM | 3.83 µM | 34.4 µM | 1.21 µM | 10.3 µM | 2.6 µM | 17.6 µM | 15.2 µM | 60.4 µM | 3.98 µM | 34.9 µM | 0.908 µM | 4.9 µM | 3.79 µM | 32.1 µM | 1.23 µM | 12.7 µM
C#CCN1CCN(C(=S)N/N=C(\C)c2ccccn2)CC1 | 0.00362 µM | 2.3 µM and 0.915 µM | 2.39 µM | 11.4 µM | 1.94 µM | 6.34 µM and 6.02 µM | 0.00195 µM | 0.00497 µM and 0.0116 µM | 0.0121 µM | 2.48 µM and 1.45 µM | 0.496 µM | 5.76 µM and 4.6 µM | 2.61 µM | 4.56 µM and 3.77 µM | 3.95 µM | 5.46 µM and 3.48 µM |  | 16.5 µM | 0.0781 µM | 6.03 µM and 3.32 µM
COc1ccc(-c2cnc(-c3ccc(F)cc3)[nH]2)cc1 | 2.2 µM | 7.59 µM | 8.34 µM | 23.7 µM | 2.14 µM | 11.2 µM | 2.03 µM | 23.4 µM | 10.8 µM | 68.4 µM | 6.12 µM | 22.4 µM | 6.59 µM | 20.4 µM | 2.2 µM | 5.59 µM | 2.62 µM | 8 µM | 5.99 µM | 14.5 µM
Cn1ccc(=Nc2ccc(NC(=O)c3ccc(N=c4ccn(C)c5ccc([N+](=O)[O-])cc45)cc3)cc2)cc1 | 3.94 µM | > 100 µM | 5.09 µM | > 100 µM | 16.4 µM | 92.6 µM | 5.34 µM | > 100 µM | 9.2 µM | > 100 µM | 2.41 µM | 37.9 µM | > 100 µM | > 100 µM | 21.4 µM | 44.6 µM | 4.37 µM | 98.2 µM | > 100 µM | > 100 µM
COc1ccc2cc(C(=O)/C=C/c3cccc(Cl)c3Cl)ccc2c1 | 24.7 µM | > 71.6 µM | 5.67 µM | 32.3 µM | 50.5 µM | > 100 µM | 24.2 µM | > 100 µM | 12.4 µM | > 81.9 µM | > 100 µM | > 100 µM | 10.2 µM | > 53.2 µM | 2.79 µM | 12.4 µM | 18.8 µM | > 92.2 µM | 6.51 µM | > 100 µM
CCc1cccc(CC)c1NC(=S)NC(=O)c1ccc(Br)cc1 |  | > 53.3 µM |  | > 81.4 µM |  | > 100 µM |  | 26.3 µM |  | > 100 µM |  | > 77.1 µM |  | > 100 µM |  | > 78 µM |  | > 100 µM |  | > 81.2 µM
CCOC(=O)/C=C1\SC(=Nc2ccc(C#N)cc2)N(CCN2C(=O)/C(=C/C(=O)OCC)SC2=Nc2ccc(C#N)cc2)C1=O | 3.05 µM | 11.5 µM | 2.58 µM | 16.6 µM | 3.84 µM | > 70.5 µM | 2.66 µM | 25.6 µM | 1.28 µM | 13.4 µM | 11 µM | 30 µM | 2 µM | 11.3 µM | 2.61 µM | 9.39 µM | 1.94 µM | 16.1 µM | 3.3 µM | 18.2 µM
CN(C)CCNC(=O)c1cccc2cc3ccccc3nc12 | 0.779 µM | 3.55 µM | 1.84 µM | > 19.9 µM | 1.6 µM | 10.2 µM | 1.03 µM | 5.3 µM | 2.33 µM | 10.8 µM | 1.4 µM | 3.34 µM | 1.11 µM | 4.06 µM | 1.42 µM | 4.13 µM | 1.65 µM | 8.18 µM | 1.43 µM | 3.29 µM
Nc1ccn([C@H]2C[C@@H](O)[C@@H](CO)S2)c(=O)n1 | > 89.8 µM | > 100 µM | > 44.7 µM | > 100 µM | > 100 µM | > 100 µM | 14.5 µM | > 100 µM | > 100 µM | > 100 µM | > 100 µM | > 100 µM | 23.6 µM | > 100 µM | > 39.1 µM | > 100 µM | > 100 µM | > 100 µM | > 100 µM | > 100 µM
C/C=C(\C)C(=O)O[C@@H]1C(O)[C@H]2OC(COC(=O)CCC(=O)CCCCCC[C@H](CCCCC)O[C@@H]3OC(C)[C@H](OC(C)=O)C(O)[C@H]3O2)[C@H]1OC(=O)/C=C/c1ccccc1 (some centres undefined) | < 0.01 µM | 1.79 µM | 0.0101 µM | 24.1 µM | < 0.01 µM | 23.3 µM | 0.127 µM | 18.9 µM | < 0.0132 µM | 16.7 µM | 0.0558 µM | 6.48 µM | < 0.01 µM | 8.34 µM | < 0.01 µM | 4.99 µM | 0.101 µM | 15.6 µM | < 0.01 µM | 0.123 µM
N#CC1C(=N)Cc2ccccc2-c2ccccc21 (centres undefined) | 3.82 µM | 20.9 µM | 5.55 µM | 38.8 µM | 5.38 µM | 65.3 µM | 3.23 µM | 16.6 µM | 12.7 µM | > 100 µM | 4.2 µM | 27.4 µM | 4.06 µM | 31.2 µM | 9.84 µM | 82.9 µM | 7.7 µM | 51.7 µM | 2.74 µM | 10.3 µM
COc1cc2cc(Oc3ccc(NC(=O)Nc4ccccc4)cc3)c(C)nc2cc1OCCN1CCCCC1 | 6.25 µM | 13.1 µM | 5.15 µM | 10.2 µM | 5.79 µM | 14.2 µM | 6.43 µM | 13.3 µM | 4.49 µM | 9.83 µM | 5.96 µM | 10.9 µM | 3.87 µM | 7.94 µM | 4.42 µM | 8.99 µM | 5.88 µM | 12.6 µM | 5.63 µM | 11.1 µM
